Results as given in publication PMC6514978, “Synthesis, Antibacterial Activities, Mode of Action and Acute Toxicity Studies of New Oxazolidinone-Fluoroquinolone Hybrids” (Molecules, 2019).
≈ marks a conversion by molar mass, not a printed value.

Legend:
Gram-positive isolates = assay: MIC summary, clinical isolates; type: cell-based; conditions: for MIC90: Gram-positive clinical isolates, read-out: MIC90 values for Gram-positive isolates (span over species)
Excerpt: 6 standard strains and 3 clinical isolates were used to the preliminary evaluation of in vitro antibacterial activities of oxazolidinone-fluoroquinolone hybrids. For the further evaluation of hybrids OBP-4 and OBP-5, 263 clinical isolates including S. aureus (46), S. haemolyticus(32), S. epidermidis (10), E. faecalis (72), E. faecium (47), S. pneumoniae (13), H. parasuis (34), S. suis (9), and 8 resistant strains including MRSA, MRSE, CIP-resistant S. aureus and S. haemolyticus, VAN and quinolone-resistant S. pneumoniae, LZD-resistant E. faecalis, LZD/VAN and quinolone-resistant E. faecium were collected and tested.
Susceptibility testing of oxazolidinone-fluoroquinolone hybrids against various bacteria was performed by the broth microdilution method as outlined by the Clinical and Laboratory Standards Institute (CLSI). Three types of media, including cation-adjusted Mueller Hinton broth, Haemophilus Test Medium and cation-adjusted Mueller Hinton broth that contained 3%–5% lysed horse blood, were used to culture the corresponding bacteria. All compounds including comparator drugs were dissolved in an appropriate solvent at a concentration of 2.048 mg/mL and then serially diluted two-fold to provide the required concentrations. A final inoculum of 5 × 10^5 CFU/mL was used and plates were read after incubation for 16–24 h at 35 °C. […] Standard quality control strains (ATCC) were included throughout. Each determination was repeated in triplicate.

E. coli DNA gyrase = biological target: T1, E. coli DNA gyrase (Escherichia coli, UniProt P0AES4+P0AES6); assay: DNA gyrase supercoiling assay; type: biochemical; conditions: supercoiling of relaxed pBR322, 37 °C, 30 min
T1 construct: purchased Inspiralis Co., Ltd; host or cells: E. coli
Experimental: The E. coli DNA Gyrase Supercoiling Assay Kit (Inspiralis Co., Ltd.) was used to investigate the inhibition activities of hybrids OBP-4 and OBP-5 against DNA gyrase. DNA gyrase is prepared from E. coli. One unit of DNA gyrase can convert 0.5 μg of relaxed pBR322 to the supercoiled forms in 30 min. […] The reaction was terminated by adding 30 μL of STEB and 30 μL of chloroform/isoamyl alcohol (v:v, 24:1), and then the products were resolved by gel electrophoresis on 1% (w/v) agarose gel at 80 V for 2 h in the absence of ethidium bromide. The gels were stained with ethidium bromide (1 μg/mL in distilled water) for 15 min, and destained (5–10 min) in distilled water. DNA bands were visualized with UV light in Bio-Rad® Chemidoc xrs and analyzed by using Quantity One software (Version 4.6, Bio-Rad).

[1] = Acute oral toxicity, limit test (OECD 425); type: in vivo; conditions: female, Kunming, mouse, in vivo, 2000 mg/kg·bw; mice, single oral dose, limit test 2000 mg/kg, 14 d observation
Experimental: (§1) Female Kunming mice (SPF grade, 18–22 g) were obtained from laboratory animal center of Lanzhou Veterinary Research Institute (Lanzhou, China). Mice were maintained under the standard conditions of 12 h light/dark cycle, room temperate (22 ± 3 °C), 50–60% relative humidity. They were fed normally with an unlimited supply of feed and water for seven days and deprived of food but not water for 4 h prior to the experiment. The toxicity test was supported by the Animal Ethics Committee of Lanzhou Institute of Husbandry and Pharmaceutical Sciences.
(§2) The acute toxicity of hybrids OBP-4 and OBP-5 was conducted by the limit test described in the OECD guideline 425 [39]. The mice were divided randomly into two groups, five animals in each group. One group of mice received a single oral dose of hybrids OBP-4 or OBP-5 at 2000 mg/kg·bw, and the other group of mice was given the equal volume of 0.5% CMC-Na solution (0.1 mL/10 g of body weight). Food was restored until 4 h after administration. The observation of each animal occurred according to the OECD guideline 425 [27], meaning continuously during the first 30 min, periodically during the next 24 h, and then daily thereafter until 14 d after dosing. The weight changes and mortality were calculated and recorded. The mice that survived were humanely killed at the end of the experiment.

Female Kunming mice = assay: Acute oral toxicity, limit test (OECD 425); type: in vivo; conditions: single oral dose 2000 mg/kg, 14 d observation
Experimental: as §1, §2

T1 sequence (P0AES4 whole entry, one chain of several): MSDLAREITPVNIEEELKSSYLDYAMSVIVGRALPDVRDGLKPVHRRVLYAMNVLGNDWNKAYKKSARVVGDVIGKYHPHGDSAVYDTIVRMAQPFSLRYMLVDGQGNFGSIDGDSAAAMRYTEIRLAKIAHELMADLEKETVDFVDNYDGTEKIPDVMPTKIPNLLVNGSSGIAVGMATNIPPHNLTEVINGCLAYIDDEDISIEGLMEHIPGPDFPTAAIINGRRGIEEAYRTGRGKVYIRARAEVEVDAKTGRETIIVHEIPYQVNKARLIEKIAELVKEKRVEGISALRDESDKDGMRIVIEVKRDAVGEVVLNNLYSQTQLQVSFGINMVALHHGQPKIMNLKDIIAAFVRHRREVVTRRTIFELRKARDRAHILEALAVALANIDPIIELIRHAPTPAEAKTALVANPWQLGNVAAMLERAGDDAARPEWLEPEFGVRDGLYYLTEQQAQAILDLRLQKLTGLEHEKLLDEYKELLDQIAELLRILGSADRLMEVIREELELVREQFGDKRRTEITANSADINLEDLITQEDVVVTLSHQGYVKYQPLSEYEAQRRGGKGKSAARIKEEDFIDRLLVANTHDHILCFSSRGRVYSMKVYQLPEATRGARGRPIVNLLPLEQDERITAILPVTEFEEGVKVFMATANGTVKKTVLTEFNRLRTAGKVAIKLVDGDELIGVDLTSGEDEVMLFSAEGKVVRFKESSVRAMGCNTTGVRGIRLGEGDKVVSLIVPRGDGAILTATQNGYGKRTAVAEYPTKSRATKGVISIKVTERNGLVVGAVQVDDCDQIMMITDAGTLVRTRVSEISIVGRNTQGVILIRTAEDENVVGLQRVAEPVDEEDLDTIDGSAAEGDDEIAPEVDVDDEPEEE

Row | Structure (SMILES) | MIC90 (Gram-positive isolates) [µg/mL] | IC50 (E. coli DNA gyrase) [µM] | LD50 at 14 d [1] [mg/kg] | death and toxicity signs (Female Kunming mice) | fold greater activity than OBP-4, overall (Gram-positive isolates; tested clinical isolates) [fold]
1 | C[C@H]1CCc2c(N3CCC(O)(COc4ccc(N5C[C@H](CO)OC5=O)cc4F)CC3)c(F)cc3c(=O)c(C(=O)O)cn1c23 [OBP-4] | 0.125 to 0.25 (≈ 0.208 to 0.417 µM) | 1 to 5 | > 2000 | No death and any toxicity signs were observed | –
2 | CC1Sc2c(C(=O)O)c(=O)c3cc(F)c(N4CCC(O)(COc5ccc(N6C[C@H](CO)OC6=O)cc5F)CC4)cc3n21 (stereo partly drawn) [OBP-5] | 0.0625 to 0.25 (≈ 0.104 to 0.414 µM) | 20 | > 2000 | No death and any toxicity signs were observed | 2
